According to US20160008333A1, “PROPHYLACTIC OR THERAPEUTIC AGENT FOR POSTERIOR OCULAR DISEASE CONTAINING TETRAHYDROPYRANYLAMINOCYCLOPENTYLCARBONYLTETRAHYDROPYRIDOPYRIDINE DERIVATIVE AS EFFECTIVE INGREDIENT” (SANTEN PHARMACEUTICAL CO., LTD., priority 2013, published 2016):

What was measured:
Format in all cases: in vivo
[1] = tested on: TNFα-induced retinal vascular hyperpermeability; test: Rat model of TNFα-induced retinal vascular hyperpermeability, oral administration
Excerpt: TNFα is a cytokine which has been reported to increase its expression in proliferative diabetic retinopathy or at the vitreous body of retinal vein occlusion (Eye 2006; 20: 1366-1369, Jpn. J. Ophthalmol. 2011; 55: 256-63), and in a streptozocin-induced diabetes model, it has been reported that it participates in onset and progress of diabetic retinopathy through permeability enhancement or histopathological alteration of retinal vessel (Mol. Vis. 2009; 15: 1418-1428). Thus, by using a rat model of TNFα-induced retinal vascular hyperpermeability, usefulness of Compound A, the diastereomer I of Compound A and the diastereomer II of Compound A were evaluated.
A rat was intramuscularly administered 1 ml/kg of a mixed solution (7:1) comprising a 5% (W/V) ketamine hydrochloride injection solution and a 2% xylazine hydrochloride injection solution to perform general anesthesia, and a 0.5% (W/V) tropicamide-0.5% phenylephrine hydrochloride eye drop was dropped into eyes to perform mydriasis. Thereafter, 5 μL of TNFα (10 μg/ml) was injected into the vitreous body by using a 32G needle so as not to damage the crystalline lens and the retina. A rat of normal group was administered PBS (phosphate buffer) in place of the TNFα.
Compound A was dissolved in a 1% (W/V) methyl cellulose solution (prepared by dissolving methyl cellulose in purified water) so that it became 2 and 20 mg/ml to prepare a Compound A solution. The Compound A solution was orally administered with a dose of 10 and 100 mg/kg at 30 minutes before, 6 and 20 hours after administration of TNFα in the vitreous body. The diastereomer I of Compound A and the diastereomer II of Compound A were also similarly prepared and administered. Incidentally, the base administered group was similarly administered a 1% (W/V) methyl cellulose solution.
In addition, RS-504393 which is a CCR2 receptor antagonist was used those purchased from Tocris Bioscience Inc., and orally administered in the same manner with a dose of 3 and 30 mg/kg.
After 24 hours from administration of TNFα in the vitreous body, the rat was euthanized by exsanguination, and then, the eyeballs of the rat were excised so as not to mix with a blood. After extraction of the eyeballs, the vitreous body was rapidly collected by making a tiny cut at around the optic papilla using a surgical scalpel. The collected vitreous body was optionally diluted by purified water, and the protein concentration was measured by the Bradford method. The protein concentration of the vitreous body thus measured was used as an index of the retinal vascular permeability. Thereafter, according to Numerical formula 4, a suppressing rate (%) of the evaluated drug against the retinal vascular hyperpermeability caused by TNFα was calculated. […]

[2] = tested on: choroidal neovascularization; test: Krypton laser-induced rat choroidal neovascularization model (fluorescein fundus angiography); settings: evaluated 7th day after photocoagulation
Method: By using a laser-induced rat choroidal neovascularization model (Invest. Ophthalmol. Vis. Sci., 40(2), 459-466 (1999)), usefulness of the compounds of the present invention was evaluated.
A rat was intramuscularly administered 1 ml/kg of a mixed solution (7:1) comprising a 5% (W/V) ketamine hydrochloride injection solution and a 2% xylazine hydrochloride injection solution to perform general anesthesia, and after a 0.5% (W/V) tropicamide-0.5% phenylephrine hydrochloride eye drop was dropped into eyes to perform mydriasis, photocoagulation was carried out by a krypton laser photocoagulation apparatus. The photocoagulation was carried out at the posterior part of eye ground, while avoiding thick retinal blood vessels, by focusing on the deep retina with eight spots per an eye in a scattered state (coagulation conditions: spot size 100 μm, output 100 mW, coagulation time 0.1 second). After the photocoagulation, the ocular fundus was photographed to confirm laser irradiated sites.
Compound A was mixed with a 1% (W/V) methyl cellulose solution (prepared by dissolving methyl cellulose in purified water) so that it became 0.4, 1.2, 4 and 12 mg/ml, and an administration solution containing Compound A was orally administered twice a day for 7 days from the surgery day including the surgery day of the photocoagulation with a dose of 2, 6, 20 and 60 mg/kg. Incidentally, to the base administered group was similarly administered a 1% (W/V) methyl cellulose solution.
At the 7th day after the photocoagulation, a rat was intramuscularly administered 1 ml/kg of a mixed solution (7:1) comprising a 5% (W/V) ketamine hydrochloride injection solution and a 2% xylazine hydrochloride injection solution to perform general anesthesia, and a 0.5% (W/V) tropicamide-0.5% phenylephrine hydrochloride eye drop was dropped into eyes to perform mydriasis, 0.1 ml of a 10% fluorescein solution was injected into a vein of penis to carry out fluorescein fundus angiography. A spot from which no leakage of fluorescence was admitted by the fluorescein fundus angiography was judged as negative (no neovascularization), and a spot from which leakage of fluorescence was admitted was judged as positive. In addition, when the photocoagulation portions from which a slight leakage of fluorescence was admitted were present two portions, it was judged as positive (neovascularization exists). Thereafter, according to Numerical formula 1, a rate of incidence of choroidal neovascularization (%) was calculated from a number of positive spot(s) to the eight spots to which the laser was irradiated, and a suppressing rate (%) of the evaluated drug was calculated in accordance with Numerical formula 2. Incidentally, a number of the samples of each administered group is 7 or 8. […]

[3] = tested on: thrombin-induced retinal vascular hyperpermeability; test: Rat model of thrombin-induced retinal vascular hyperpermeability (vitreous protein concentration)
[4] = tested on: TNFα-induced retinal vascular hyperpermeability; test: Rat model of TNFα-induced retinal vascular hyperpermeability, intravitreal administration; settings: 100 μg/eye intravitreally immediately after intravitreal TNFα; vitreous protein at 24 h
Method: To investigate an effectiveness of Compound A by topical administration, the effect of intravitreal administration of Compound A on a rat model of TNFα-induced retinal vascular hyperpermeability was investigated. A model was prepared in the same manner as in Pharmacological test 3. Compound A was dissolved in a mixed solution of dimethylsulfoxide and PLA0020 with a ratio of 4: 1 so that it became 40 mg/ml to prepare a solution of Compound A. Immediately after intravitreal administration of TNFα, the solution of Compound A was intravitreally administered with a dose of 100 μg/eyes. Incidentally, to the base administered group, a mixed solution of dimethylsulfoxide and PLA0020 with a ratio of 4:1 was similarly administered. After 24 hours from intravitreal administration of TNFα, the rat was euthanized by exsanguination, and then, the eyeballs of the rat were excised so as not to mix with a blood. […] The collected vitreous body was optionally diluted by purified water, and the protein concentration was measured by the Bradford method. The protein concentration of the vitreous body thus measured was used as an index of the retinal vascular permeability. Thereafter, according to Numerical formula 4, a suppressing rate (%) of the evaluated drug against the retinal vascular hyperpermeability caused by TNFα was calculated. […]

[5] = 10 mg/kg intraperitoneally, vitreous protein 24 h after intravitreal thrombin

Cc1ccc2c(c1)C1(CCN(CCc3nc(-c4ccccc4)oc3C)CC1)OC(=O)N2 [RS-504393, reference compound]
Retinal vascular permeability suppressing rate (%) ([1]; 3 mg/kg orally, vitreous protein 24 h after intravitreal TNFα): 18%
Retinal vascular permeability suppressing rate (%) ([1]; 30 mg/kg orally, vitreous protein 24 h after intravitreal TNFα): −13%

COC1COCCC1N[C@@H]1CC[C@@](C(=O)N2CCc3ncc(C(F)(F)F)cc3C2)(C(C)C)C1.O=C(O)CCC(=O)O (stereo partly drawn) [Compound A]
Suppressing rate (%) of incidence of choroidal neovascularization ([2]; 2 mg/kg orally twice a day for 7 days): 32.8%
Suppressing rate (%) of incidence of choroidal neovascularization ([2]; 6 mg/kg orally twice a day for 7 days): 39.5%
Suppressing rate (%) of incidence of choroidal neovascularization ([2]; 20 mg/kg orally twice a day for 7 days): 52.9%
Suppressing rate (%) of incidence of choroidal neovascularization ([2]; 60 mg/kg orally twice a day for 7 days): 62.7%
Retinal vascular permeability suppressing rate (%) ([3]; 6 mg/kg orally at 30 min before, 6 and 20 h after intravitreal thrombin, vitreous protein at 24 h): 15%
Retinal vascular permeability suppressing rate (%) ([1]; 10 mg/kg orally at 30 min before, 6 and 20 h after intravitreal TNFα, vitreous protein at 24 h): 63%
Retinal vascular permeability suppressing rate (%) ([1]; 100 mg/kg orally at 30 min before, 6 and 20 h after intravitreal TNFα, vitreous protein at 24 h): 88%
Retinal vascular permeability suppressing rate (%) [4]: 61%

O=C(/C=C/c1cc(F)cc(F)c1)N1CCC([C@@H](CO)N2CCC(c3c[nH]c4ncccc34)CC2)CC1 [Compound C, 2(S)-[1-[3-(3,5-difluorophenyl)-2(E)-propenoyl]piperidin-4-yl]-2-[4-(1H-pyrrolo[2,3-b]pyridin-3-yl)piperidin-1-yl]ethanol]
Retinal vascular permeability suppressing rate (%) [3, 5]: −1%

C[N+](C)(Cc1ccc(NC(=O)c2ccc(Cl)c(Cl)c2)cc1)C1CCOCC1.[Cl-] [Compound B, N-[4-(3,4-dichlorobenzamido)benzyl]-N,N-dimethyl-N-(tetrahydropyran-4-yl)ammonium chloride]
Retinal vascular permeability suppressing rate (%) [3, 5]: −13%
